Test [1] has as its system Rattus norvegicus. In words: Inhibition of (+)-amphetamine-induced stereotyped behavior in ip dosed rat administered 15 mins prior to (+)-amphetamine challenge measured after 15 mins. Conditions: read-out: MED. It counts as functional.
The species named for test [2] is Bos taurus. In words: Displacement of [3H]spiperone from calf striatum dopamine receptor at 1000 nM.
For test [3], the species on record is Rattus norvegicus. In words: Displacement of [3H]haloperidol from rat striatum dopamine receptor at 1000 nM.
Test [4] is described as follows: Displacement of [3H]haloperidol from rat striatum dopamine receptor.
A short description of test [5]: Displacement of [3H]spiperone from calf striatum dopamine receptor. More on the design: species or system Bos taurus.

The structures appear in SMILES notation.

In the case of `Br.CC(C)(C)[C@@]1(O)CCN2C[C@@H]3Cc4ccccc4Cc4cccc(c43)[C@H]2C1`, the minimal effective dose in test [1] was more than 25 mg/kg. For the same compound, the inhibition in test [2] and in test [3] was 0% throughout.
`CC(C)(C)[C@]1(O)CCN2C[C@H]3Cc4ccccc4Cc4cccc(c43)[C@@H]2C1.Cl` (racemic): the IC50 in test [4] and in test [5] was 1.7 nM in each case. Moreover, in test [1], the minimal effective dose stood at 0.62 mg/kg.
In the case of `Br.CC(C)(C)[C@]1(O)CCN2C[C@H]3Cc4ccccc4Cc4cccc(c43)[C@@H]2C1`, the concentration for half-maximal inhibition (IC50) in test [4] and in test [5] was 0.8 nM in each case. Also, in test [1], the minimal effective dose worked out at 0.31 mg/kg.
